{"source": "the NIST ThermoML archive (doi:10.1016/j.jct.2004.02.001)", "key": {"[1]": {"experiment": "Molar enthalpy of transition or fusion", "conditions": "DSC"}, "[2]": {"conditions": "for vapor or sublimation pressure: Calculated from knudsen effusion weight loss; for Triple point temperature: DTA"}}, "note": "Several values for one entry are separate records, joined by “and”; a condition that tells them apart may be missing. Equal entries are not always repeated. ± gives the expanded uncertainty stated by the source."}
{"smiles": "CCCCc1ccc(C(=O)O)cc1", "note": "[4-butylbenzoic acid]", "values": [{"measurement": "Molar enthalpy of transition or fusion", "setting": "[1]; Crystal 1", "value": "2.77 ± 0.0741", "unit": "kcal/mol"}, {"measurement": "Molar enthalpy of transition or fusion", "setting": "[1]; Crystal 2", "value": "1.12 ± 0.055", "unit": "kcal/mol"}, {"measurement": "Molar enthalpy of transition or fusion", "setting": "[1]; Nematic liquid crystal", "value": "0.182 ± 0.0382", "unit": "kcal/mol"}, {"measurement": "vapor or sublimation pressure", "setting": "[2]; 333.16 K, Crystal 1", "value": "0.000164 ± 8e-06 kPa and 0.000162 ± 8e-06 kPa"}, {"measurement": "vapor or sublimation pressure", "setting": "[2]; 335.16 K, Crystal 1", "value": "0.000211 ± 1.1e-05 kPa and 0.000212 ± 1.1e-05 kPa"}, {"measurement": "vapor or sublimation pressure", "setting": "[2]; 337.14 K, Crystal 1", "value": "0.000263 ± 1.3e-05 kPa and 0.000262 ± 1.3e-05 kPa and 0.000261 ± 1.3e-05 kPa"}, {"measurement": "vapor or sublimation pressure", "setting": "[2]; 339.17 K, Crystal 1", "value": "0.000323 ± 1.6e-05 kPa and 0.000328 ± 1.6e-05 kPa and 0.00033 ± 1.7e-05 kPa"}, {"measurement": "vapor or sublimation pressure", "setting": "[2]; 341.17 K, Crystal 1", "value": "0.000422 ± 2.1e-05 kPa and 0.00042 ± 2.1e-05 kPa and 0.000408 ± 2e-05 kPa"}, {"measurement": "vapor or sublimation pressure", "setting": "[2]; 343.16 K, Crystal 1", "value": "0.00052 ± 2.6e-05 kPa and 0.000522 ± 2.6e-05 kPa"}, {"measurement": "vapor or sublimation pressure", "setting": "[2]; 345.15 K, Crystal 1", "value": "0.000645 ± 3.2e-05 kPa and 0.000629 ± 3.2e-05 kPa and 0.000622 ± 3.1e-05 kPa"}, {"measurement": "vapor or sublimation pressure", "setting": "[2]; 347.13 K, Crystal 1", "value": "0.000804 ± 4e-05 kPa and 0.000786 ± 3.9e-05 kPa and 0.00078 ± 3.9e-05 kPa"}, {"measurement": "vapor or sublimation pressure", "setting": "[2]; 349.15 K, Crystal 1", "value": "0.000994 ± 5e-05 kPa and 0.000968 ± 4.8e-05 kPa and 0.000978 ± 4.9e-05 kPa"}, {"measurement": "Triple point temperature", "setting": "[2]; Crystal 1", "value": "374.6 ± 0.5", "unit": "K"}, {"measurement": "Triple point temperature", "setting": "[2]; Crystal 2", "value": "309.64 ± 0.5", "unit": "K"}, {"measurement": "Triple point temperature", "setting": "[2]; Nematic liquid crystal", "value": "387.98 ± 0.5", "unit": "K"}]}
{"smiles": "CCc1ccc(C(=O)O)cc1", "note": "[4-ethylbenzoic acid]", "values": [{"measurement": "Molar enthalpy of transition or fusion", "setting": "[1]; Crystal", "value": "3.06 ± 0.0789", "unit": "kcal/mol"}, {"measurement": "vapor or sublimation pressure", "setting": "[2]; 321.17 K, Crystal", "value": "0.000214 ± 1.1e-05 kPa and 0.000211 ± 1.1e-05 kPa"}, {"measurement": "vapor or sublimation pressure", "setting": "[2]; 323.16 K, Crystal", "value": "0.000272 ± 1.4e-05 kPa and 0.000265 ± 1.3e-05 kPa and 0.000263 ± 1.3e-05 kPa"}, {"measurement": "vapor or sublimation pressure", "setting": "[2]; 325.22 K, Crystal", "value": "0.000347 ± 1.7e-05 kPa and 0.000335 ± 1.7e-05 kPa"}, {"measurement": "vapor or sublimation pressure", "setting": "[2]; 327.17 K, Crystal", "value": "0.000419 ± 2.1e-05 kPa and 0.000418 ± 2.1e-05 kPa and 0.000436 ± 2.2e-05 kPa"}, {"measurement": "vapor or sublimation pressure", "setting": "[2]; 329.34 K, Crystal", "value": "0.00055 ± 2.8e-05 kPa and 0.000542 ± 2.7e-05 kPa and 0.000527 ± 2.6e-05 kPa"}, {"measurement": "vapor or sublimation pressure", "setting": "[2]; 331.2 K, Crystal", "value": "0.000666 ± 3.3e-05 kPa and 0.000651 ± 3.3e-05 kPa and 0.000637 ± 3.2e-05 kPa"}, {"measurement": "vapor or sublimation pressure", "setting": "[2]; 333.14 K, Crystal", "value": "0.000826 ± 4.1e-05 kPa and 0.000818 ± 4.1e-05 kPa and 0.000803 ± 4e-05 kPa"}, {"measurement": "vapor or sublimation pressure", "setting": "[2]; 335.25 K, Crystal", "value": "0.00103 ± 0.0001 kPa and 0.00101 ± 0.0001 kPa and 0.001 ± 5e-05 kPa"}, {"measurement": "Triple point temperature", "setting": "[2]; Crystal", "value": "385.2 ± 0.5", "unit": "K"}]}
{"smiles": "CCCCCCCc1ccc(C(=O)O)cc1", "note": "[4-heptylbenzoic acid]", "values": [{"measurement": "Molar enthalpy of transition or fusion", "setting": "[1]; Crystal 1", "value": "3.42 ± 0.112", "unit": "kcal/mol"}, {"measurement": "Molar enthalpy of transition or fusion", "setting": "[1]; Crystal 2", "value": "1.77 ± 0.0574", "unit": "kcal/mol"}, {"measurement": "Molar enthalpy of transition or fusion", "setting": "[1]; Nematic liquid crystal", "value": "0.239 ± 0.0287", "unit": "kcal/mol"}, {"measurement": "vapor or sublimation pressure", "setting": "[2]; 353.16 K, Crystal 1", "value": "0.000119 ± 6e-06 kPa and 0.000121 ± 6e-06 kPa and 0.000116 ± 6e-06 kPa"}, {"measurement": "vapor or sublimation pressure", "setting": "[2]; 355.19 K, Crystal 1", "value": "0.000149 ± 7e-06 kPa and 0.000151 ± 8e-06 kPa"}, {"measurement": "vapor or sublimation pressure", "setting": "[2]; 357.19 K, Crystal 1", "value": "0.000191 ± 1e-05 kPa and 0.000193 ± 1e-05 kPa and 0.000189 ± 9e-06 kPa"}, {"measurement": "vapor or sublimation pressure", "setting": "[2]; 359.18 K, Crystal 1", "value": "0.000239 ± 1.2e-05 kPa and 0.00024 ± 1.2e-05 kPa"}, {"measurement": "vapor or sublimation pressure", "setting": "[2]; 361.17 K, Crystal 1", "value": "0.000312 ± 1.6e-05 kPa and 0.0003 ± 1.5e-05 kPa and 0.000304 ± 1.5e-05 kPa"}, {"measurement": "vapor or sublimation pressure", "setting": "[2]; 363.2 K, Crystal 1", "value": "0.000392 ± 2e-05 kPa and 0.000381 ± 1.9e-05 kPa"}, {"measurement": "vapor or sublimation pressure", "setting": "[2]; 365.18 K, Crystal 1", "value": "0.000484 ± 2.4e-05 kPa and 0.000482 ± 2.4e-05 kPa and 0.000475 ± 2.4e-05 kPa"}, {"measurement": "vapor or sublimation pressure", "setting": "[2]; 367.14 K, Crystal 1", "value": "0.000608 ± 3e-05 kPa and 0.000602 ± 3e-05 kPa and 0.000595 ± 3e-05 kPa"}, {"measurement": "vapor or sublimation pressure", "setting": "[2]; 369.2 K, Crystal 1", "value": "0.000771 ± 3.9e-05 kPa and 0.000764 ± 3.8e-05 kPa and 0.000751 ± 3.8e-05 kPa"}, {"measurement": "Triple point temperature", "setting": "[2]; Crystal 1", "value": "374.52 ± 0.5", "unit": "K"}, {"measurement": "Triple point temperature", "setting": "[2]; Crystal 2", "value": "320.17 ± 0.5", "unit": "K"}, {"measurement": "Triple point temperature", "setting": "[2]; Nematic liquid crystal", "value": "393.11 ± 0.5", "unit": "K"}]}
{"smiles": "CCCCCCc1ccc(C(=O)O)cc1", "note": "[4-hexylbenzoic acid]", "values": [{"measurement": "Molar enthalpy of transition or fusion", "setting": "[1]; Crystal 1", "value": "0.227 ± 0.0335", "unit": "kcal/mol"}, {"measurement": "Molar enthalpy of transition or fusion", "setting": "[1]; Crystal 3", "value": "3.08 ± 0.0813", "unit": "kcal/mol"}, {"measurement": "vapor or sublimation pressure", "setting": "[2]; 347.08 K, Crystal 1", "value": "0.00015 ± 8e-06 kPa and 0.000151 ± 8e-06 kPa and 0.000146 ± 7e-06 kPa"}, {"measurement": "vapor or sublimation pressure", "setting": "[2]; 349.19 K, Crystal 1", "value": "0.000193 ± 1e-05 kPa and 0.000191 ± 1e-05 kPa and 0.000189 ± 9e-06 kPa"}, {"measurement": "vapor or sublimation pressure", "setting": "[2]; 351.19 K, Crystal 1", "value": "0.000245 ± 1.2e-05 kPa and 0.000243 ± 1.2e-05 kPa and 0.000232 ± 1.2e-05 kPa"}, {"measurement": "vapor or sublimation pressure", "setting": "[2]; 353.14 K, Crystal 1", "value": "0.000298 ± 1.5e-05 kPa and 0.000293 ± 1.5e-05 kPa and 0.000304 ± 1.5e-05 kPa"}, {"measurement": "vapor or sublimation pressure", "setting": "[2]; 355.25 K, Crystal 1", "value": "0.000391 ± 2e-05 kPa and 0.000388 ± 1.9e-05 kPa and 0.000381 ± 1.9e-05 kPa"}, {"measurement": "vapor or sublimation pressure", "setting": "[2]; 357.16 K, Crystal 1", "value": "0.000485 ± 2.4e-05 kPa and 0.00047 ± 2.4e-05 kPa and 0.000468 ± 2.3e-05 kPa"}, {"measurement": "vapor or sublimation pressure", "setting": "[2]; 359.27 K, Crystal 1", "value": "0.000619 ± 3.1e-05 kPa and 0.000614 ± 3.1e-05 kPa and 0.000605 ± 3e-05 kPa"}, {"measurement": "vapor or sublimation pressure", "setting": "[2]; 361.35 K, Crystal 1", "value": "0.000768 ± 3.8e-05 kPa and 0.000764 ± 3.8e-05 kPa and 0.000736 ± 3.7e-05 kPa"}, {"measurement": "vapor or sublimation pressure", "setting": "[2]; 363.14 K, Crystal 1", "value": "0.000951 ± 4.8e-05 kPa and 0.000946 ± 4.7e-05 kPa and 0.000919 ± 4.6e-05 kPa"}, {"measurement": "Triple point temperature", "setting": "[2]; Crystal 1", "value": "370.64 ± 0.5", "unit": "K"}, {"measurement": "Triple point temperature", "setting": "[2]; Nematic liquid crystal", "value": "385.87 ± 0.5", "unit": "K"}]}
